Reference: article PMC5514153, “Targeting PTPRZ inhibits stem cell-like properties and tumorigenicity in glioblastoma cells” (Scientific Reports, 2017)

Key:
Assay type in all cases: biochemical
hPTPN6 = target: T1, hPTPN6 (Homo sapiens, UniProt P29350); assay: In vitro PTPase assay (DiFMUP), PTPN6; settings: 60-min preincubation
T1 construct: the catalytic domains of PTPN1 and PTPN6 were expressed as glutathione-S-transferase (GST) fusion proteins; GST (N); made in house; host or cells: Escherichia coli BL21
T1 sequence (P29350 244-515 limits assumed): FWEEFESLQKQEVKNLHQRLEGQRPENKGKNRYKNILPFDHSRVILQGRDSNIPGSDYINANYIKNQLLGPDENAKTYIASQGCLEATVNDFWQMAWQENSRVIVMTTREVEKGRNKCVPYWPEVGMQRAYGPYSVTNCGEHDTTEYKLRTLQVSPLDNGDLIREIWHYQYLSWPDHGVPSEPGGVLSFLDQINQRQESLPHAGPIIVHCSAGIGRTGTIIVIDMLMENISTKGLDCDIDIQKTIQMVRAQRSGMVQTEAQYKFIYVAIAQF
Protocol: (§1) Figure 4 NAZ2329, an allosteric inhibitor of R5 RPTP subfamily members. (A) Structure of NAZ2329. (B) Effect of preincubation of NAZ2329 on its inhibitory activity against PTPRZ. Recombinant human PTPRZ1 enzyme (the whole intracellular region) was premixed with NAZ2329 for the indicated times and followed by addition of a fluorogenic DiFMUP (non-specific PTP substrate, 6,8-difluoro-4-methylumbiliferyl phosphate) to measure PTP inhibitory activity. (C) Time dependence. The PTPRZ1 enzyme was added to the inhibitor–substrate mixture, and the inhibitory activity was determined at each time point relative to the vehicle control. (D) Reversibility of inhibition. […] The mixture was then 20-fold diluted, and recovered PTP activity was expressed as the relative activity compared with the vehicle-treated enzyme. […] PTPRZ1 enzymes were preincubated with NAZ2329 for 60 min, and the PTP activity was measured using DiFMUP. […]
(§2) Recombinant proteins corresponding to the entire intracellular regions (ICRs) of PTPRZ1, PTPRA, and PTPRM were expressed using a baculovirus-silkworm expression system, and purified as described. The ICRs of PTPRG, PTPRS, and PTPRB and the catalytic domains of PTPN1 and PTPN6 were expressed as glutathione-S-transferase (GST) fusion proteins from each pGEX plasmid in Escherichia coli strain BL21 (ref. [6]). […]

mPTPRB = target: T2, mPTPRB (Mus musculus, UniProt B2RU80); assay: In vitro PTPase assay (DiFMUP), PTPRB; settings: 60-min preincubation
T2 construct: The ICRs of PTPRG, PTPRS, and PTPRB and the catalytic domains of PTPN1 and PTPN6; GST (N); made in house; host or cells: Escherichia coli BL21
T2 sequence (B2RU80 1644-1997 limits assumed): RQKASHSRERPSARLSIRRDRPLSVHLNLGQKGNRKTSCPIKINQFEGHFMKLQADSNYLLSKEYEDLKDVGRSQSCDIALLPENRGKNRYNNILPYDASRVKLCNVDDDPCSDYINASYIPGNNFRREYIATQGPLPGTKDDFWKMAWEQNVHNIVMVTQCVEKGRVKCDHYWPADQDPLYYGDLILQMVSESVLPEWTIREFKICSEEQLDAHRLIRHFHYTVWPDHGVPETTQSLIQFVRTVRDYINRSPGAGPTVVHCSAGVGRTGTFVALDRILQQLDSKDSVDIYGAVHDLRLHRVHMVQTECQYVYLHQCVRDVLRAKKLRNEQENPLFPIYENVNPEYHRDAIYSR
Protocol: as §1, §2

[1] = target: T3, human PTPRZ1 (whole intracellular region, D1+D2) (Homo sapiens, UniProt P23471); assay: In vitro PTPase assay (DiFMUP), PTPRZ1 whole intracellular region
T3 construct: Recombinant proteins corresponding to the entire intracellular regions (ICRs) of PTPRZ1, PTPRA, and PTPRM; made in house; host or cells: baculovirus-silkworm expression system
T3 sequence (P23471 1663-2315 limits assumed): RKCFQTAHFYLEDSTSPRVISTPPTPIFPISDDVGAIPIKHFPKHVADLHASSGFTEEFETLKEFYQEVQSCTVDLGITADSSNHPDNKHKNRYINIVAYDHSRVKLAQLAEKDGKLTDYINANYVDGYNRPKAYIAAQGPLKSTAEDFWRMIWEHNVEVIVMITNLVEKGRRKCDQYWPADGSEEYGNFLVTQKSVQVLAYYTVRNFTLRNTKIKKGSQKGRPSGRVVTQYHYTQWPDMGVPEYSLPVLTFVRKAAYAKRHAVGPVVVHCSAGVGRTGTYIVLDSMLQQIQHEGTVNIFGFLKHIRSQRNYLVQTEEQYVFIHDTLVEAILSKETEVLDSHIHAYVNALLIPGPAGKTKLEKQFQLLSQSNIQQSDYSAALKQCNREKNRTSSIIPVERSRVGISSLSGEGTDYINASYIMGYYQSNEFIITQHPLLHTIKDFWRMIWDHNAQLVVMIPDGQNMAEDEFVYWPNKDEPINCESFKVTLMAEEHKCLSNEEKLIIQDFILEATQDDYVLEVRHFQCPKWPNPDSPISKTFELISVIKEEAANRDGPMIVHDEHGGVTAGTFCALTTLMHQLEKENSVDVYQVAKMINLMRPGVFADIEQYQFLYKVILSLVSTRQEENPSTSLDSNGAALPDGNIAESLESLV
Protocol: Figure 4 NAZ2329, an allosteric inhibitor of R5 RPTP subfamily members. (A) Structure of NAZ2329. (B) Effect of preincubation of NAZ2329 on its inhibitory activity against PTPRZ. Recombinant human PTPRZ1 enzyme (the whole intracellular region) was premixed with NAZ2329 for the indicated times and followed by addition of a fluorogenic DiFMUP (non-specific PTP substrate, 6,8-difluoro-4-methylumbiliferyl phosphate) to measure PTP inhibitory activity. (C) Time dependence. The PTPRZ1 enzyme was added to the inhibitor–substrate mixture, and the inhibitory activity was determined at each time point relative to the vehicle control. (D) Reversibility of inhibition. PTPRZ1 enzymes were preincubated with NAZ2329 at the indicated concentrations for 30 min. The mixture was then 20-fold diluted, and recovered PTP activity was expressed as the relative activity compared with the vehicle-treated enzyme. (E) Lineweaver-Burk plot analysis. PTPRZ1 enzymes were preincubated with NAZ2329 for 60 min, and the PTP activity was measured using DiFMUP. (F) Concentration-inhibition curves of NAZ2329 for representative PTP members, including human PTPRZ and PTPRG (another R5 RPTP subfamily member), human PTPRS (R2A subfamily), human PTPRM (R2B subfamily), mouse PTPRB (R3 subfamily), human PTPRA (R4 subfamily), human PTPN1 (non-transmembrane PTP, NT1 subfamily), and human PTPN6 (NT2 subfamily), were generated. Assays were performed using DiFMUP. IC50 values obtained are shown in the inset. Data represent the averages of two or three separate experiments. TEXT PRINTED IN THE PICTURE: (F) NAZ2329: IC50 (μM): hPTPRZ1 7.5; IC50 (μM): hPTPRG 4.8; IC50 (μM): hPTPRA 35.7; IC50 (μM): hPTPRM 56.7; IC50 (μM): hPTPRS 23.7; IC50 (μM): mPTPRB 35.4; IC50 (μM): hPTPN6 15.2; IC50 (μM): hPTPN1 14.5
Recombinant proteins corresponding to the entire intracellular regions (ICRs) of PTPRZ1, PTPRA, and PTPRM were expressed using a baculovirus-silkworm expression system, and purified as described. The ICRs of PTPRG, PTPRS, and PTPRB and the catalytic domains of PTPN1 and PTPN6 were expressed as glutathione-S-transferase (GST) fusion proteins from each pGEX plasmid in Escherichia coli strain BL21 (ref. [6]). GST fusion proteins were purified by glutathione affinity chromatography as described. Chondroitinase ABC (chABC) was purchased from Sigma-Aldrich (catalog #C3667). Anti-PTPRZ-S, rabbit polyclonal antibodies against the extracellular region of PTPRZ was described previously (ref. [44]). The following are the specificities and sources of the commercially available antibodies used in the present study: Anti-RPTPβ (a monoclonal antibody against the intracellular domain of PTPRZ1 receptors, #610179, BD Biosciences), anti-SOX2 (#ab97959, Abcam), anti-POU3F2 (#12137, Cell Signaling), anti-OLIG2 (#AB9610, Millipore), anti-SALL2 (#12679–1-AP, Proteintech Group), anti-GAPDH (#ab9482, Abcam) anti-phosphotyrosine (PY20; #ab16389, Abcam), and anti-pY118-paxillin (#2541, Cell Signaling), mouse anti-paxillin antibody (#610569, BD Bioscience), anti-MBP (#sc-13914, Santa Cruz Biotechnology), and anti-NG2 proteoglycan (#AB5320, Millipore). […]

hPTPRA = target: T4, hPTPRA (Homo sapiens, UniProt P18433); assay: In vitro PTPase assay (DiFMUP), PTPRA; settings: 60-min preincubation
T4 construct: Recombinant proteins corresponding to the entire intracellular regions (ICRs) of PTPRZ1, PTPRA, and PTPRM; made in house; host or cells: baculovirus-silkworm expression system
Protocol: as §1, §2

In the case of `CCOc1ccc(C(F)(F)F)cc1CSc1ccsc1C(=O)NS(=O)(=O)c1ccccc1` [NAZ2329], the IC50 (hPTPN6) is reported as 15.2 µM, the IC50 (mPTPRB) is reported as 35.4 µM and the “reversibility: enzymatic activity after 20-fold dilution of enzyme-compound mixture” value ([1]; 30 min preincubation, then 20-fold dilution) is reported as “fully recovered to the control level”. The “type of inhibition (Lineweaver-Burk plot)” value ([1]; 60 min preincubation, DiFMUP) was “noncompetitive-type inhibition”, the IC50 ([1]; whole intracellular region, DiFMUP, 60-min preincubation, read-out: IC50 hPTPRZ1 (D1+D2)) was 7.5 µM and the IC50 (hPTPRA) was 35.7 µM.
